# Test results reported in article PMC7247818, “Demonstration of Binding Induced Structural Plasticity in a SH2 Domain” (Frontiers in Molecular Biosciences, 2020).
# Where a SMILES comes first, the peptide text is derived from it.
# Tests used:
# N-SH2 domain of PI3K, WT = molecular target: T1, N-SH2 domain of PI3K, WT (Homo sapiens, UniProt P27986); assay: Stopped-flow binding kinetics, N-SH2 WT; settings: 10°C
# T1 construct: made in house
# Procedure: (§1) N-SH2 wild-type and all the site-directed variants were expressed and purified as described previously ([Visconti et al., 2019]). All the mutants were obtained using a QuickChange Lightning Site-Directed Mutagenesis kit (Agilent technologies), accordingly to manufacturer instructions. Peptides with sequence TNSEDNpYVPMNPG mimicking wild-type Gab2 and TNSEDNpYVPANPG mimicking the M457A variant of Gab2 were purchased from GenScript Biotech Corporation.
# (§2) Binding kinetics experiments were performed using a single-mixing SX-18 stopped-flow instrument (Applied Photophysics); all binding experiments were conducted in 50 mM Hepes pH 7.4 300 mM NaCl at 10°C. Excitation was at 280 nm and emission was collected using a […] cut-off glass filter. Pseudo-first order binding experiments were performed mixing a constant concentration of dansylated Gab2_448–460 and Gab2_448–460 M457A (1 μM) vs. N-SH2 wt and its mutants at concentrations ranging from […]. For each N-SH2 concentration, usually 5 individual traces were averaged and in all cases the fluorescence time courses obtained was satisfactorily fitted by using a single exponential equation.
# (§3) One of the aims of this study is to depict the molecular details of the interaction between the N-SH2 domain of PI3K and Gab2. A powerful strategy to achieve this goal relies on perturbing the system by producing conservative site-directed variants while monitoring the effect of mutations on the association and dissociation rate constants between the interacting partners (kon and koff respectively). Thus, we designed and successfully produced 21 site-directed variants of the N-SH2 domain and challenged them vs. a peptide mimicking the region of Gab2 ranging from residue 448–460 (Gab2_448–460), containing the pY-X-X-M motif that is specifically recognized by the N-SH2 domain ([Waksman et al., 1992]; [Songyang et al., 1993]). The choise of mutations was designed in analogy to phi-value analysis methodology in protein folding studies ([Fersht and Sato, 2004]). […] To monitor binding by fluorescence, a dansyl group was added at the N-terminus of the peptide. The binding reaction was monitored by stopped-flow experiments following the change in FRET signal, taking advantage of the two Trp residues on the N-SH2 domain in positions 12 and 14 as fluorescence donor and the dansyl group on Gab2_448–460 as acceptor. The experiments were performed in pseudo-first order conditions with Gab2_448–460 at fixed concentration of 1 μM rapidly mixed vs. large excess of N-SH2 wt and its variants, ranging from 4 to 14 μM, in buffer Hepes 50 mM, NaCl 300 mM, pH 7.4, at 10°C.
# (§4) with kon being the slope of the line and koff the intercept with the y-axis. Since indirect calculation of koff obtained by extrapolation is associated with high experimental error, we performed displacement experiments to directly measure koff by challenging a pre-incubated complex of dansylated Gab2_448–460 and N-SH2 domain both at the concentration of 1 μM vs. a large excess of non-dansylated Gab2_448–460 (50 μM). Kinetic parameters extracted from data together with the calculated changes in activation and equilibrium free energies are reported in Table 1. Analysis of kinetic data highlights that T48S, L51A, and L59A variations cause a detectable decrease of the affinity of the domain for Gab2_448–460 of ∼10-fold, affecting both the kon and koff. […] Since L99 residue is part of the binding pocket, this dramatic effect on the binding affinity is expected.
# (§5) SH2 domains bind ligands with a phosphorylated tyrosine in their sequence. The N-SH2 domain of PI3K is known to recognize a specific consensus sequences that present a methionine in position +3 in respect to the phosphotyrosine (M457 in Gab2). […]
# [1] = molecular target: T2, N-SH2 domain of PI3K, I17V variant (Homo sapiens, UniProt P27986, I338V); assay: Stopped-flow binding kinetics, N-SH2 I17V; settings: 10°C
# T2 construct: made in house
# T2 sequence (P27986 333-428 I338V): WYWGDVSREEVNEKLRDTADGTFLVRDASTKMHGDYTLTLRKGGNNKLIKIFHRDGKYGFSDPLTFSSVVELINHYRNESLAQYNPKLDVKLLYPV
# Procedure: as §1, §2, §3, §4, §5
# [2] = molecular target: T3, N-SH2 domain of PI3K, V22A variant (Homo sapiens, UniProt P27986, V343A); assay: Stopped-flow binding kinetics, N-SH2 V22A; settings: 10°C
# T3 construct: made in house
# T3 sequence (P27986 333-428 V343A): as the sequence (P27986 333-428 I338V) above, with V6I, V11A counted along it
# Procedure: as §1, §2, §3, §4, §5
# [3] = molecular target: T4, N-SH2 domain of PI3K, T29S variant (Homo sapiens, UniProt P27986, T350S); assay: Stopped-flow binding kinetics, N-SH2 T29S; settings: 10°C
# T4 construct: made in house
# T4 sequence (P27986 333-428 T350S): as the sequence (P27986 333-428 I338V) above, with V6I, T18S counted along it
# Procedure: as §1, §2, §3, §4, §5
# [4] = molecular target: T5, N-SH2 domain of PI3K, A30G variant (Homo sapiens, UniProt P27986, A351G); assay: Stopped-flow binding kinetics, N-SH2 A30G; settings: 10°C
# T5 construct: made in house
# T5 sequence (P27986 333-428 A351G): as the sequence (P27986 333-428 I338V) above, with V6I, A19G counted along it
# Procedure: as §1, §2, §3, §4, §5
# [5] = molecular target: T6, N-SH2 domain of PI3K, T33S variant (Homo sapiens, UniProt P27986, T354S); assay: Stopped-flow binding kinetics, N-SH2 T33S; settings: 10°C
# T6 construct: made in house
# T6 sequence (P27986 333-428 T354S): as the sequence (P27986 333-428 I338V) above, with V6I, T22S counted along it
# Procedure: as §1, §2, §3, §4, §5
# [6] = molecular target: T7, N-SH2 domain of PI3K, L35A variant (Homo sapiens, UniProt P27986, L356A); assay: Stopped-flow binding kinetics, N-SH2 L35A; settings: 10°C
# T7 construct: made in house
# T7 sequence (P27986 333-428 L356A): as the sequence (P27986 333-428 I338V) above, with V6I, L24A counted along it
# Procedure: as §1, §2
# (§6) One of the aims of this study is to depict the molecular details of the interaction between the N-SH2 domain of PI3K and Gab2. […] To monitor binding by fluorescence, a dansyl group was added at the N-terminus of the peptide. The binding reaction was monitored by stopped-flow experiments following the change in FRET signal, taking advantage of the two Trp residues on the N-SH2 domain in positions 12 and 14 as fluorescence donor and the dansyl group on Gab2_448–460 as acceptor. […]
# (§7) with kon being the slope of the line and koff the intercept with the y-axis. […] Kinetic parameters extracted from data together with the calculated changes in activation and equilibrium free energies are reported in Table 1. […]
# [7] = molecular target: T8, N-SH2 domain of PI3K, T48S variant (Homo sapiens, UniProt P27986, T369S); assay: Stopped-flow binding kinetics, N-SH2 T48S; settings: 10°C
# T8 construct: made in house
# T8 sequence (P27986 333-428 T369S): as the sequence (P27986 333-428 I338V) above, with V6I, T37S counted along it
# Procedure: as §1, §2, §6, §7
# [8] = molecular target: T9, N-SH2 domain of PI3K, T50S variant (Homo sapiens, UniProt P27986, T371S); assay: Stopped-flow binding kinetics, N-SH2 T50S; settings: 10°C
# T9 construct: made in house
# T9 sequence (P27986 333-428 T371S): as the sequence (P27986 333-428 I338V) above, with V6I, T39S counted along it
# Procedure: as §1, §2, §3, §4, §5
# [9] = molecular target: T10, N-SH2 domain of PI3K, L51A variant (Homo sapiens, UniProt P27986, L372A); assay: Stopped-flow binding kinetics, N-SH2 L51A; settings: 10°C
# T10 construct: made in house
# T10 sequence (P27986 333-428 L372A): as the sequence (P27986 333-428 I338V) above, with V6I, L40A counted along it
# Procedure: as §1, §2, §3, §4, §5
# [10] = molecular target: T11, N-SH2 domain of PI3K, L59A variant (Homo sapiens, UniProt P27986, L380A); assay: Stopped-flow binding kinetics, N-SH2 L59A; settings: displacement experiment, pH 7.4, 300 mM NaCl, 10°C
# T11 construct: made in house
# T11 sequence (P27986 333-428 L380A): as the sequence (P27986 333-428 I338V) above, with V6I, L48A counted along it
# Procedure: as §1, §2, §6, §7
# [11] = displacement experiment, pH 7.4, 300 mM NaCl
# [12] = stopped-flow FRET, 1 μM dansylated peptide, 50 mM Hepes pH 7.4, 300 mM NaCl
# [13] = stopped-flow kinetics, pH 7.4, 300 mM NaCl
# T1 sequence (P27986 333-428 limits assumed): as the sequence (P27986 333-428 I338V) above, with V6I counted along it
smiles,measurement,setting,value
CSCC[C@H](NC(=O)[C@@H]1CCCN1C(=O)[C@@H](NC(=O)[C@H](Cc1ccc(OP(=O)(O)O)cc1)NC(=O)[C@H](CC(N)=O)NC(=O)[C@H](CC(=O)O)NC(=O)[C@H](CCC(=O)O)NC(=O)[C@H](CO)NC(=O)[C@H](CC(N)=O)NC(=O)[C@@H](N)[C@@H](C)O)C(C)C)C(=O)N[C@@H](CC(N)=O)C(=O)N1CCC[C@H]1C(=O)NCC(=O)O [Gab2_448–460] (HELM PEPTIDE1{T.N.S.E.D.N.[O=C([C@H](Cc1ccc(OP(=O)(O)O)cc1)N[*:1])[*:2]].V.P.M.N.P.G}$$$$V2.0),koff,"N-SH2 domain of PI3K, WT; displacement of 1 μM complex by 50 μM non-dansylated Gab2_448–460, 50 mM Hepes pH 7.4, 300 mM NaCl",3.9 ± 0.2 s⁻¹
same,Kd,"N-SH2 domain of PI3K, WT; from stopped-flow kinetics, pH 7.4, 300 mM NaCl",200 ± 100 nM
same,kon,"N-SH2 domain of PI3K, WT; stopped-flow FRET, 1 μM dansylated peptide vs excess N-SH2, 50 mM Hepes pH 7.4, 300 mM NaCl, slope of kobs",1.95e+07 ± 1e+06 M⁻¹ s⁻¹
same,koff,[1]; [11],4.5 ± 0.2 s⁻¹
same,kon,[1]; [12],2.44e+07 ± 1.7e+06 M⁻¹ s⁻¹
same,Kd,[1]; [13],200 ± 100 nM
same,koff,[2]; [11],7.4 ± 0.4 s⁻¹
same,kon,[2]; [12],1.12e+07 ± 400000 M⁻¹ s⁻¹
same,Kd,[2]; [13],700 ± 100 nM
same,koff,[3]; [11],4.3 ± 0.2 s⁻¹
same,kon,[3]; [12],1.75e+07 ± 500000 M⁻¹ s⁻¹
same,Kd,[3]; [13],300 ± 100 nM
same,koff,[4]; [11],3.7 ± 0.2 s⁻¹
same,kon,[4]; [12],2.92e+07 ± 2e+06 M⁻¹ s⁻¹
same,Kd,[4]; [13],100 ± 100 nM
same,koff,[5]; [11],3.6 ± 0.2 s⁻¹
same,kon,[5]; [12],2.26e+07 ± 2.4e+06 M⁻¹ s⁻¹
same,Kd,[5]; [13],200 ± 100 nM
same,koff,[6]; [11],6.7 ± 0.3 s⁻¹
same,kon,[6]; [12],7e+06 ± 600000 M⁻¹ s⁻¹
same,Kd,[6]; [13],1000 ± 100 nM
same,koff,[7]; [11],23 ± 1 s⁻¹
same,kon,[7]; [12],6.4e+06 ± 500000 M⁻¹ s⁻¹
same,Kd,[7]; [13],3700 ± 100 nM
same,koff,[8]; [11],9.3 ± 0.5 s⁻¹
same,kon,[8]; [12],1.56e+07 ± 800000 M⁻¹ s⁻¹
same,Kd,[8]; [13],600 ± 100 nM
same,koff,[9]; [11],18 ± 1 s⁻¹
same,kon,[9]; [12],5.6e+06 ± 1.1e+06 M⁻¹ s⁻¹
same,Kd,[9]; [13],3200 ± 200 nM
same,koff,[10],21 ± 1 s⁻¹
